This assay addresses T1, purified recombinant human Aggrecanase-1 (rAgg1) (Homo sapiens, UniProt O75173).
T1 sequence (O75173 213-837): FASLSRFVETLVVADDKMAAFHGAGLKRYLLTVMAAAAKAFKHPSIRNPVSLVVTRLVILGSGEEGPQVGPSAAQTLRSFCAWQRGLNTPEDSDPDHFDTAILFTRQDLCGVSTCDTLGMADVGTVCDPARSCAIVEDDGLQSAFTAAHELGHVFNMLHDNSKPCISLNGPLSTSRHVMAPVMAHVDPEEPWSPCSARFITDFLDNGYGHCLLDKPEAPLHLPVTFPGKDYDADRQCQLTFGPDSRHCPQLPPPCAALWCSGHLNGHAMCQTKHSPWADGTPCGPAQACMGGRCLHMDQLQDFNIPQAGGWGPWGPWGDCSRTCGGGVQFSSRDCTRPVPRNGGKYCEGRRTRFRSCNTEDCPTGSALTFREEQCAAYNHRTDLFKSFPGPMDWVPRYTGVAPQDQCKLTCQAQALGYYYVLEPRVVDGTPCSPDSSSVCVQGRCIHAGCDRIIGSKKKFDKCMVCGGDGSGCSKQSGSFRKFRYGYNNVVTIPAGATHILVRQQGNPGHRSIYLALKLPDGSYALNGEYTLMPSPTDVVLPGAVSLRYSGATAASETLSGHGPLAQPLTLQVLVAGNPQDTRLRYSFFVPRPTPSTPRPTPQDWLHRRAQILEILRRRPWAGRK
Briefly: In vitro fluorescence screen for Aggrecanase-1 inhibitors. Type of assay: biochemical. As to conditions: for IC50: read-out: Agg1 IC50.

Like-named read-outs stand apart in the source and are kept apart here. Where only a bound is given, the exact number is not on record here.

The term IC50 denotes the concentration at which inhibition is half-maximal.

In the case of `C=CCOc1ccc(-c2ccc(C(=O)N[C@@H](CCC(=O)O)C(=O)NCc3ccccc3)cc2)cc1` [Example 15E, N^2-{[4′-(allyloxy)-1,1′-biphenyl-4-yl]carbonyl}-N^1-benzyl-L-α-glutamine], the half-inhibitory concentration (IC50) (Table 1) is 3.5 µM.
On the same count and under the same terms, then `COc1cccc(COc2ccc(-c3ccc(C(=O)N[C@@H](CCC(=O)O)C(=O)NCc4ccccc4)cc3)cc2)c1` [Example 15F, N^1-benzyl-N^2-({4′-[(3-methoxybenzyl)oxy]-1,1′-biphenyl-4-yl}carbonyl)-L-α-glutamine], with 0.6 µM.
Still for that read-out and setting: the same measure for `COc1cc(COc2ccc(-c3ccc(C(=O)N[C@@H](CCC(=O)O)C(=O)NCc4ccccc4)cc3)cc2)cc(OC)c1` [Example 15G, N^1-benzyl-N^2-({4′-[(3,5-dimethoxybenzyl)oxy]-1,1′-biphenyl-4-yl}carbonyl)-L-α-glutamine]: 2.2 µM; for `O=C(O)CC[C@H](NC(=O)c1ccc(-c2ccc(OCc3ccc4ccccc4c3)cc2)cc1)C(=O)NCc1ccccc1` [Example 15H, N^1-benzyl-N^2-{[4′-(2-naphthylmethoxy)-1,1′-biphenyl-4-yl]carbonyl}-L-α-glutamine]: 0.2 µM.
For `COc1cc(C(=O)N[C@@H](CCC(=O)O)C(=O)NCc2ccccc2)cc(OC)c1-c1ccccc1` [Example 17AAA, N^1-benzyl-N^2-[(2,6-dimethoxy-1,1′-biphenyl-4-yl)carbonyl]-L-α-glutamine], the “Agg1 IC50 (nM)” value (Table 1) was “no inh”.
For `COc1ccc(-c2ccccc2)cc1NC(=O)[C@H](CCC(=O)O)NC(=O)c1ccc(-c2ccccc2)cc1` [Example 17BBB, N^2-(1,1′-biphenyl-4-ylcarbonyl)-N^1-(4-methoxy-1,1′-biphenyl-3-yl)-L-α-glutamine], the half-maximal inhibitory concentration (IC50) (Table 1) amounted to 0.9 µM.
Turning to `O=C(O)CC[C@H](NC(=O)c1ccc(-c2ccncc2)cc1)C(=O)NCc1ccccc1` [Example 17VV, N^1-benzyl-N^2-(4-pyridin-4-ylbenzoyl)-L-α-glutamine], the IC50 (Table 1) turned out to be 7.9 µM.
On to `O=C(O)CC[C@H](NC(=O)c1cccc(-c2ccccc2)c1)C(=O)NCc1ccccc1` [Example 17WW, N^1-benzyl-N^2-(1,1′-biphenyl-3-ylcarbonyl)-L-α-glutamine], for which the “Agg1 IC50 (nM)” value (Table 1) is “no inh”.
Still for that read-out and setting: the same measure for `O=C(O)CC[C@H](NC(=O)c1cccc(-c2cccs2)c1)C(=O)NCc1ccccc1` [Example 17XX, N^1-benzyl-N^2-(3-thien-2-ylbenzoyl)-L-α-glutamine]: “no inh”.
With `O=C(O)CC[C@H](NC(=O)c1ccc(-c2ccccc2)cc1Cl)C(=O)NCc1ccccc1` [Example 17YY, N^1-benzyl-N^2-[(3-chloro-1,1′-biphenyl-4-yl)carbonyl]-L-α-glutamine], the IC50 (Table 1) came out at 2 µM.
The same measure, in the same setting: then `O=C(O)CC[C@H](NC(=O)c1ccc(-c2ccccc2)cc1F)C(=O)NCc1ccccc1` [Example 17ZZ, N^1-benzyl-N^2-[(3-fluoro-1,1′-biphenyl-4-yl)carbonyl]-L-α-glutamine], with 0.2 µM.
On to `Cc1cccc(CNC(=O)[C@H](CCC(=O)O)NC(=O)c2ccc(Br)cc2)c1` [Example 18G, N^2-(4-bromobenzoyl)-N-(3-methylbenzyl)-L-α-glutamine], for which the IC50 (Table 2) is around 8.3 µM.
As for `O=C(O)CC[C@H](NC(=O)c1ccc(-c2ccccc2)o1)C(=O)NCc1ccccc1` [Example 20, N^1-benzyl-N^2-(5-phenyl-2-furoyl)-L-α-glutamine], the half-maximal inhibitory concentration (IC50) (Table 1) was around 22 µM.
Take `CCOc1cccc(-c2ccc(C(=O)N[C@@H](CCC(=O)O)C(=O)NCc3ccccc3)o2)c1` [Example 21A, N^1-benzyl-N^2-[5-(3-ethoxyphenyl)-2-furoyl]-L-α-glutamine]: the IC50 (Table 1) lay within 2.5 to 7.5 µM.
The same measure, in the same setting: the same measure for `Cc1cc(C)cc(-c2ccc(C(=O)N[C@@H](CCC(=O)O)C(=O)NCc3ccccc3)o2)c1` [Example 21B, N^1-benzyl-N^2-[5-(3,5-dimethylphenyl)-2-furoyl]-L-α-glutamine]: around 6.7 µM.
On to `O=C(O)CC[C@H](NC(=O)c1ccc(-c2ccco2)o1)C(=O)NCc1ccccc1` [Example 21C, N^1-benzyl-N^2-(2,2′-bifuran-5-ylcarbonyl)-L-α-glutamine], for which, for the setting “Table 1”, the “Agg1 IC50 (nM)” value is “no inh”.
On to `O=C(O)CC[C@H](NC(=O)c1ccc(-c2cccs2)o1)C(=O)NCc1ccccc1` [Example 21D, N^1-benzyl-N^2-(5-thien-2-yl-2-furoyl)-L-α-glutamine], for which, where the note is “Table 1”, the “Agg1 IC50 (nM)” value is on record as “no inh”.
Turning to `O=C(O)CC[C@H](NC(=O)c1ccc(-c2ccccc2)nc1)C(=O)NCc1ccccc1` [Example 22A, N^1-benzyl-N^2-[(6-phenylpyridin-3-yl)carbonyl]-L-α-glutamine], for the setting “Table 1”, the IC50 was 1 µM.
The same measure, in the same setting: the same measure for `COc1cccc(CNC(=O)[C@H](CCC(=O)O)NC(=O)c2ccc(-c3ccccc3)nc2)c1` [Example 22B, N^1-(3-methoxybenzyl)-N^2-[(6-phenylpyridin-3-yl)carbonyl]-L-α-glutamine]: 0.2 µM.
Consider `COc1cccc(CNC(=O)[C@H](CCC(=O)O)NC(=O)c2ccc(-c3ccccc3C)c(C)c2)c1` [Example 22C, N^2-[(2,2′-dimethyl-1,1′-biphenyl-4-yl)carbonyl]-N^1-(3-methoxybenzyl)-L-α-glutamine], for which the IC50 (Table 1) was above 50 µM.
Still for that read-out and setting: then `CC(=O)Nc1ccc(-c2ccc(C(=O)N[C@@H](CCC(=O)O)C(=O)NCc3ccccc3)cc2)cc1` [Example 23, N^2-{[4′-(acetylamino)-1,1′-biphenyl-4-yl]carbonyl}-N^1-benzyl-L-α-glutamine], with above 6 µM; and `O=C(O)CC[C@H](NC(=O)c1ccc(-c2ccc(NC(=O)c3ccco3)cc2)cc1)C(=O)NCc1ccccc1` [Example 24A, N^1-benzyl-N^2-{[4′-(2-furoylamino)-1,1′-biphenyl-4-yl]carbonyl}-L-α-glutamine], with 1.1 µM; and `O=C(O)CC[C@H](NC(=O)c1ccc(-c2ccc(NC(=O)c3ccc(F)cc3)cc2)cc1)C(=O)NCc1ccccc1` [Example 24B, N^1-benzyl-N^2-({4′-[(4-fluorobenzoyl)amino]1,1′-biphenyl-4-yl}carbonyl)-L-α-glutamine], with around 2.2 µM.
On the same count and under the same terms, the same measure for `O=C(O)CC[C@H](NC(=O)c1ccc(-c2ccc(NC(=O)c3ccccc3)cc2)cc1)C(=O)NCc1ccccc1` [Example 24C, N^2-{[4′-(benzoylamino)-1,1′-biphenyl-4-yl]carbonyl}-N^1-benzyl-L-α-glutamine]: around 0.3 µM; for `O=C(O)CC[C@H](NC(=O)c1ccc(-c2ccc(NC(=O)Cc3ccccc3)cc2)cc1)C(=O)O` [Example 26, N-({4′-[(Phenylacetyl)amino]1,1′-biphenyl-4-yl}carbonyl)-L-α-glutamic acid]: 5 µM.
Same read-out and setting: then `Cc1c(C(=O)Nc2ccc(-c3ccc(C(=O)N[C@@H](CCC(=O)O)C(=O)O)cc3)cc2)oc2ccccc12` [Example 27, N-[(4′-{[(3-Methyl-1-benzofuran-2-yl)carbonyl]-amino}-1,1′-biphenyl-4-yl)carbonyl]-L-α-glutamic acid], with 0.4 µM.
As for `O=C(O)CC[C@H](NC(=O)c1ccc(-c2ccc(NC(=O)c3ccco3)cc2)cc1)C(=O)O` [Example 28, N-{[4′-(2-furoylamino)-1,1′-biphenyl-4-yl]carbonyl}-L-α-glutamic acid], the IC50 (Table 1) was found to be 0.4 µM.
With `CC(=O)Nc1ccc(-c2ccc(C(=O)N[C@@H](CCC(=O)O)C(=O)O)cc2)cc1` [Example 29, N-{[4′-(acetylamino)-1,1′-biphenyl-4-yl]carbonyl}-L-α-glutamic acid], the IC50 (Table 1) worked out at 3 µM.
Still for that read-out and setting: then `O=C(O)CC[C@H](NC(=O)c1ccc(-c2ccc(NC(=O)c3ccccc3)cc2)cc1)C(=O)O` [Example 30, N-{[4′-(benzoylamino)-1,1′-biphenyl-4-yl]carbonyl}-L-α-glutamic acid], with 0.5 µM; and `O=C(O)CC[C@H](NC(=O)c1ccc(-c2ccc(NC(=O)c3cc4ccccc4o3)cc2)cc1)C(=O)O` [Example 31, N-({4′-[(1-benzofuran-2-ylcarbonyl)amino]-1,1′-biphenyl-4-yl}carbonyl)-L-α-glutamic acid], with 1 µM; and `Cc1ccc(CNC(=O)[C@H](CCC(=O)NO)NC(=O)c2ccc(-c3ccccc3)cc2)cc1C` [Example 33B, N^2-(1,1′-biphenyl-4-ylcarbonyl)-N^1-(3,4-dimethylbenzyl)-N^5-hydroxy-L-α-glutamamide], with below 0.03 µM.
Consider `CC(C)(Cc1ccccc1)NC(=O)[C@H](CCC(=O)O)NC(=O)c1cccc(-c2cccs2)c1` [N-(1,1-dimethyl-2-phenylethyl)-N^2-[3-(2-thienyl)benzoyl]-L-α-glutamine], for which the IC50 (Table 3) is above 8.3 µM.

The values above are taken from patent publication US7998965B2, “Glutamate aggrecanase inhibitors” (Wyeth LLC, priority 2005, dated 2011).
